The text below walks through data of ChEMBL document CHEMBL5233218, “Quinolizidine alkaloids derivatives from Sophora alopecuroides Linn: Bioactivities, structure-activity relationships and preliminary molecular mechanisms” (Eur J Med Chem, 2020).

Common to all, as to type: functional, cell-based
Experiment [1] has as its system H22. The experiment in a line: Cytotoxicity against mouse H22 cells assessed as inhibition of cell growth by MTT assay.
Experiment [2] concerns LS180. The experiment can be described thus: Cytotoxicity against human LS180 cells assessed as inhibition of cell growth by MTT assay.
Experiment [3] in a line: Antiproliferative activity against rat HSC-T6 cells.
The test system of experiment [4] is MRC5. The experiment in a line: Anti-fibrotic activity in human MRC5 cells assessed as inhibition of TGF-beta1 induced total collagen deposition.
In experiment [5] the test system is HepG2. The experiment can be described thus: Cytotoxicity against human HepG2 cells assessed as inhibition of cell growth by MTT assay.

Consider `COC(=O)CCC[C@@H]1[C@H]2CCCN3CCC[C@@H](CN1P(=O)(Oc1ccc(Br)cc1)N(CCCl)CCCl)[C@@H]23` (some centres undefined), for which the IC50 in experiment [1] and in experiment [2] was 2100 nM each time.
With `CN(C(=O)CN/C=C/c1ccccc1)[C@@H]1CC(=S)N2C[C@@H]3CCCN4CCC[C@@H]([C@H]34)[C@H]2C1`, in experiment [3], the IC50 stood at 62000 nM.
As to `COC(=O)CCC[C@@H]1[C@H]2CCCN3CCC[C@@H](CN1P(=O)(Oc1ccc4ccccc4c1)N(CCCl)CCCl)[C@@H]23` (some centres undefined), the IC50 in experiment [1] and in experiment [2] was 2100 nM each time.
Turning to `COC(=O)CCC[C@@H]1[C@H]2CCCN3CCC[C@@H](CN1P(=O)(Oc1cccc(Cl)c1)N(CCCl)CCCl)[C@@H]23` (some centres undefined), the IC50 in experiment [1] and in experiment [2] was 2100 nM throughout.
Take `COC(=O)CCC[C@@H]1[C@H]2CCCN3CCC[C@@H](CN1P(=O)(Oc1ccc(F)cc1)N(CCCl)CCCl)[C@@H]23` (some centres undefined): the IC50 in experiment [1] and in experiment [2] was 2100 nM in each case.
On to `COC(=O)CCC[C@@H]1[C@H]2CCCN3CCC[C@@H](CN1P(=O)(Oc1cccc4ccccc14)N(CCCl)CCCl)[C@@H]23` (some centres undefined), for which the half-inhibitory concentration (IC50) in experiment [1] and in experiment [2] was 2100 nM throughout.
The molecule `O=C1CCC[C@@H]2[C@H]3CCCN4CCC[C@@H](CN12)[C@@H]34` [MATRINE] registered a half-inhibitory concentration (IC50) in experiment [3] of 128000 nM.
Take `O=C1CC(n2ccc3cc(Cl)ccc32)C[C@@H]2[C@H]3CCCN4CCC[C@@H](CN12)[C@@H]34` (some centres undefined): the IC50 in experiment [4] came out at 3300 nM.
As to `O=c1[nH]cc(F)c(=O)[nH]1` [FLUOROURACIL], the IC50 in experiment [5] was found to be 8020 nM.
